# Results taken from paper PMC9820592, “Novel Chiral Ru(II) Complexes as Potential c-myc G-quadruplex DNA Stabilizers Inducing DNA Damage to Suppress Triple-Negative Breast Cancer Progression” (International Journal of Molecular Sciences, 2022).
# Assays:
# [1] = test system: subintestinal vessels (SIVs); assay: Angiogenic assay in Tg (fli1: EGFP) zebrafish; format: in vivo; conditions: compared with control group
# Procedure: (§1) The zebrafish model of transplanted breast cancer was constructed in accordance with the methods in the literature. Juvenile 48 h old breast cancer model zebrafish were placed in 48-well plates (n = 10), and 0.2 mL aquaculture water without or with Δ−3 (0, 2.5, 5, and 10 μM) was added for culture. Images were captured every 24 h using a fluorescence microscope to study the inhibitory effect of Δ−3 on zebrafish with breast cancer. In addition, the mean number of sprout and mean length of sprout in subintestinal vessels (SIVs) were analyzed by ImageProPlus software. The ethical protocols for the in vivo research on zebrafish complied with relevant laws.
# [2] = test system: MDA-MB-231 cells; assay: Wound-healing assay; format: cell-based, human
# Procedure: MDA-MB-231 cells (1 × 10^5 cells/well) were inoculated in a 6-well cell culture plate marked on the back until a single layer of cells covered more than 90% of the bottom of the culture plate, and a 200 µL pipette was used to scratch the culture. Different concentrations of the complexes (0, 2.5, 5, and 10 µM) were applied for 72 h. Migrating cells in the same field of view were observed and recorded every 24 h, and the average cell migration rate was calculated in three fields for every group.
# [3] = test system: c-myc protein; assay: c-myc protein expression in MDA-MB-231 cells; format: cell-based, human; conditions: 40 μΜ, 72 h
# [4] = test system: MDA-MB-231 cells; assay: MTT assay, MDA-MB-231 cells; format: cell-based, human; conditions: 72 h, read-out: Inhibitory Effect (IC50/μM) MDA-MB-231
# Procedure: (§2) Liver cancer HepG2 cells, lung cancer A549 cells, breast cancer MCF-7 and MDA-MB-231 cells, human nasopharyngeal carcinoma CNE-1 cells, and human immortalized keratinocyte HaCaT cells were seeded in 96-well plates (5 × 10^3 cells per well) and cultured at 37 °C and 5% CO2 for 24 h. Cells were treated with different concentrations of the complexes (0, 1.5625, 3.125, 6.25, 12.5, 25, 50, and 100 µM) for 72 h. After adding 20 µL MTT (5 mg/mL) solution to each well, the cells were incubated for 4 h, and then 150 µL DMSO was added to each well. The optical density of each well was detected by a microplate reader at a wavelength of 570 nm. The cell survival rate (%) = A(experimental group)/A(control group) × 100%, and the IC50 value was analyzed and calculated based on the survival rate.
# [5] = test system: A549 cells; assay: MTT assay, A549 cells; format: cell-based, human; conditions: 72 h, read-out: Inhibitory Effect (IC50/μM) A549
# Procedure: as §2
# [6] = test system: γ-H2AX; assay: γ-H2AX immunofluorescence; format: cell-based, human
# Procedure: MDA-MB-231 cells were inoculated in a 6-well plate containing a cover glass. On the second day, the cells were treated with different concentrations of the complex (0, 5, and 10 μM) for 24 h. The cells were fixed with 4% paraformaldehyde for 20 min, and then blocked with 5% BSA for 0.5 h at room temperature. The 1:500 anti-γH2AX antibody was diluted with 5% FBS and incubated for 1 h. The cells were incubated with lgG (H + L) for 0.5 h and treated with DAPI for 5 min. The cover glass was then transferred to a specified microscope slide and photographed with laser confocal microscopy. The antibodies used in immunofluorescence to determine invasion and metastasis were anti-paxillin antibody (ab32115), Fluor 488-conjugated IgG (H + L) (Proteintech), and rhodamine phalloidin (Amanita phalloidin, cytoskeleton).
# [7] = test system: MDA-MB-231 cells; assay: Comet assay; format: cell-based, human; conditions: 5 and 10 μM
# Procedure: DNA damage was detected by single-cell gel electrophoresis by using the Comet assay kit (Trevigen). MDA-MB-231 cells were added to a culture dish containing the medium. After treatment with different concentrations of the complexes (0, 5, and 10 μM) at 37 °C for 72 h, the cells were collected and washed with PBS three times. A solution of the cell suspension and melted low-melting-point agarose gel was mixed at a volume ratio of 1:7, and the equilateral sample was immediately transferred to a Comet Slide TM slide. The slides were washed twice with PBS, placed into an electrophoresis tank containing comet electrophoresis solution, and electrophoresed at 25 V for 30 min. After electrophoresis, the slides were washed twice with PBS. Finally, the cells were stained with EB and observed under a fluorescence microscope. Cells were randomly selected from each slide to take photos, and the tail moment was analyzed.
# [8] = test system: MDA-MB-231 cells; assay: ICP detection of Ru content in cells; format: cell-based, human; conditions: 24 h, control 0.4
# Procedure: MDA-MB-231 cells were seeded in 10 cm cell culture dishes. After cell adherence, the cells were treated with the drug (0, 2.5, 5, and 10 μM) for 24 h. After 24 h, the cells were washed with PBS three times and collected by trypsin. The number of collected cells was counted by a cell counter. Then, the cells were digested in 1 mL HNO3 solution by microwave digestion at 120 °C for 3 min, and 1 mL of this solution was transferred to a 5 mL volumetric flask, diluted with distilled water to volume, and mixed. The Ru content of these solutions was analyzed by an ICP optical emission spectrometer (NCS, Plasma 2000). All measurements were repeated three times.
# [9] = test system: MDA-MB-231 cells; assay: Flow cytometry, apoptosis (Annexin V-FITC/PI); format: cell-based, human; conditions: 72 h, control 2.77%
# Procedure: MDA-MB-231 cells were treated with different concentrations of the complexes (0, 10, 20, and 40 μM) for 72 h, then collected and stained with an Annexin V-FITC/PI Apoptosis Detection Kit I (BD, 556547). The MDA-MB-231 cells were fixed with 70% ethanol at 4 °C for 30 min, and then collected and stained with PI/RNase Staining Buffer (BD, 550825). The cells were analyzed by flow cytometry (Beckman, CytoFLEX). All experiments were repeated three times.
# [10] = test system: MDA-MB-231 cells; assay: EdU proliferation assay; format: cell-based, human; conditions: control 50.2%
# Procedure: The inhibitory effect of the chiral DPPZ-based Ru(II) complexes (Λ/Δ−1−3) was assessed against different human tumor cancer cells, such as breast cancer MCF-7, MDA-MB-231, lung cancer A549, liver carcinoma HepG2, nasopharyngeal carcinoma CNE-1, and human normal keratinocyte HaCaT cells, by MTT assay. […] Moreover, the inhibition of MDA-MB-231 cell proliferation by Δ−3 was detected by using an EdU (5-ethynyl-2′-deoxyuridine) staining kit, and EdU was incorporated into newly synthesized DNA in the sample cells. The red fluorescent azide is small enough to diffuse freely through native tissues and DNA, and it covalently cross-links to the EdU in a “click” chemistry reaction.
# [11] = test system: MDA-MB-231 cells; assay: Zebrafish xenograft breast cancer model; format: in vivo; conditions: 2.5, 5, and 10 μM, 72 h
# Procedure: as §1
substance,measurement,setting,value
Δ-[Ru(bpy)2(3-NBEDPPZ)](ClO4)2 [Δ−3],number and length of SIVs,[1],significantly decreased
same,migration rate (wound healing),"[2]; 10 μM, different treatment times",less than half that of the control
same,migration of cells (wound healing),[2]; 2.5 and 5 μM,inhibited inconspicuously
same,expression of the c-myc protein,[3],effectively downregulated
same,IC50,[4],25.5 µM
same,IC50,[5],24.7 ± 0.28 µM
same,γ-H2AX production,[6]; 5 μM,Green fluorescence was observed
same,γ-H2AX production,[6]; 10 μM,the DNA damage was serious
same,DNA damage (comet appearance),[7],cometary shapes appeared
same,Ru content in cells,[8]; 2.5 μM,0.52 ng/mL per 1 × 10^4 cells
same,Ru content in cells,[8]; 5 μM,1.82 ng/mL per 1 × 10^4 cells
same,Ru content in cells,[8]; 10 μM,2.91 ng/mL per 1 × 10^4 cells
same,proportion of apoptotic cells,[9]; 10 μM,5.39%
same,proportion of apoptotic cells,[9]; 20 μM,7.95%
same,proportion of apoptotic cells,[9]; 40 μM,16.27%
same,proliferation rate (EdU),[10]; 10 μM,34.9%
same,proliferation rate (EdU),[10]; 20 μM,22.0%
same,proliferation rate (EdU),[10]; 40 μM,5.1%
same,number of MDA-MB-231 cells in zebrafish,[11],significantly lower than that of the control
